Data on 43 compounds can be found in US11666577B2 (National Institute of Biological Sciences, Beijing, priority 2018, dated 2023).

In this assay the test system is HT-29 cells. In words: Necroptosis assay (TNF-α/Smac mimetic/z-VAD, TSZ-induced) in HT-29 cells. Format: cell-based, human. As for the experimental part: Methods: HT-29 cells were cultured in McCoy's 5 A culture medium (Invitrogen). On day one, HT-29 cells were plated in 96-well assay plates at density of 2,500-3,500 cells per well. On day two, necrosis were induced by adding 20 ng/ml TNF-α (T), 100 nM Smac mimetic (S), and […] z-VAD (Z). At the same time, 10 mM compound from a chemical library of ˜200,000 compounds was delivered into each well. After 24 hrs treatment, cell viability was determined by measuring ATP level using the Cell Titer-Glo Luminescent Cell Viability Assay kit. A CellTiter-Glo Assay (Promega) was performed according to the manufacturer's instructions. Luminescence was recorded with a PerkinElmer EnSpire Multimode Plate Reader. Survived cells were normalized to those cells treated with DMSO. RIPA-56 was used as a positive control for screening necroptosis inhibitors. Data are represented as mean±standard deviation of duplicates.
In previous work, we performed a cell-based high-throughput screen to identify necroptosis inhibitors using a chemical library of ˜200,000 compounds and identified multiple compounds that protected human colorectal adenocarcinoma (HT-29) cells from TNF-α/Smac mimetic/Z-VAD-fmk (TSZ)-induced necroptosis.^[4]
The anti-necroptosis potency of compounds 7-12 and 14-18 was evaluated in the HT-29 cell line; the EC50 values are shown in Table B.
[a] Necroptosis was induced in HT-29 cells for 24 h; the EC50 values given here are the mean values of at least three independent analyses.

The mark [1] stands for this setting: Homo sapiens, Series 2 (Table 2) compounds, HT-29 necroptosis assay, read-out: Series 2 compound necroptosis activity.
[2] abbreviates: Series 1 (Table 1) compounds, HT-29 cells, TNF-α/Smac mimetic/z-VAD, 24 hrs, cell viability by ATP level, read-out: Series 1 compound necroptosis activity.
Setting [3] is: Series 1 (Table 1) compounds 1-146, HT-29 cells, TNF-α/Smac mimetic/z-VAD, 24 hrs, cell viability by ATP level, read-out: Series 1 compound necroptosis activity.
Setting [4] is: Homo sapiens, Series 1 (Table 1) compounds 1-146, HT-29 cells, TNF-α/Smac mimetic/z-VAD, 24 hrs, cell viability by ATP level, read-out: Series 1 compound necroptosis activity.
Where [5] appears, read: Series 1 (Table 1) compounds 147-176, activity extrapolated, read-out: Series 1 compound necroptosis activity (extrapolated).

Where two headings read alike, the source gives them in different places.

`Cn1c(=O)c2c(nc(S(C)(=O)=O)n2C)n(CC#Cc2cc(NC(=O)CN3CCOCC3)cc(NC(=O)C3CC3)c2)c1=O` [Compound 36]: the EC50 under setting [1] lay within 0.001 to 0.1 µM. Same read-out and setting: the same measure for `COCCOc1cc(C#CCn2c(=O)n(C)c(=O)c3c2nc([S+](C)[O-])n3C)cc(NC(=O)C2CC2)c1` (stereo not shown) [Compound 54]: 0.001 to 0.1 µM. Turning to `Cn1c(=O)c2c(nc(S(=O)(=O)CC3CC3)n2C)n(CC#Cc2cccc(NC(=O)OC(C)(C)C)c2)c1=O` [Compound 123, tert-butyl(3-(3-(8-((cyclopropylmethyl)sulfonyl)-1,7-dimethyl-2,6-dioxo-1,2,6,7-tetrahydro-3H-purin-3-yl)prop-1-yn-1-yl)phenyl)carbamate], under setting [2], the EC50 lay within 0.001 to 1 µM. For `Cn1c(=O)c2c(nc(S(=O)(=O)Cc3ccc(F)cc3)n2C)n(C)c1=O` [Compound 28, 8-(4-fluorobenzylsulfonyl)-1,3,7-trimethyl-1H-purine-2,6(3H,7H)-dione], under setting [3], the EC50 was in the range of 1 to 1000 µM.

As to `Cn1c(=O)c2c(nc(S(=O)(=O)Cc3ccccc3[N+](=O)[O-])n2C)n(C)c1=O` [Compound 38, 1,3,7-trimethyl-8-(2-nitrobenzylsulfonyl)-1H-purine-2,6(3H,7H)-dione], the EC50 under setting [3] is 1 to 1000 µM. `Cn1c(=O)c2c(nc(S(=O)(=O)CC3CC3)n2C)n(C)c1=O` [Compound 13, 8-(cyclopropylmethylsulfonyl)-1,3,7-trimethyl-1H-purine-2,6(3H,7H)-dione]: the EC50 under setting [4] lay in the range of 1 to 100 µM.

On to `CCS(=O)(=O)c1nc2c(c(=O)n(C)c(=O)n2CC#Cc2cc(NC(=O)C3CC3)cc(NC(=O)C3CC3)c2)n1C` [Compound 50], for which the EC50 under setting [1] is 0.001 to 0.1 µM. For the compound `Cn1c(=O)c2c(nc(S(C)(=O)=O)n2C)n(CC#Cc2ccc3cc[nH]c3c2)c1=O` [Compound 163], the EC50 under setting [5] is 1 to 1000 µM. Take `CN(C)CCOc1cc(C#CCn2c(=O)n(C)c(=O)c3c2nc(S(C)(=O)=O)n3C)cc(NC(=O)C2CC2)c1` [Compound 42]: the EC50 under setting [1] is 0.001 to 0.1 µM.

Take `Cn1c(=O)c2c(nc(S(C)(=O)=O)n2C)n(CC#Cc2cc(NC(=O)C3CC3)cc(C(F)(F)F)c2)c1=O` [Compound 44]: the EC50 under setting [1] lay in the range of 0.001 to 0.1 µM. Same read-out and setting: the same measure for `Cn1c(=O)c2c(nc(S(C)(=O)=O)n2C)n(CC#Cc2cc(F)cc(NC(=O)CN3CCOCC3)c2)c1=O` [Compound 20]: 0.001 to 0.1 µM.

With `Cn1c(=O)c2c(nc(S(C)(=O)=O)n2C)n(Cc2ccccc2)c1=O` [Compound 103, 3-benzyl-1,7-dimethyl-8-(methylsulfonyl)-1H-purine-2,6(3H,7H)-dione], the EC50 under setting [4] lay in the range of 1 to 100 µM. With `Cn1c(=O)c2c(nc([S+](C)[O-])n2C)n(CC#Cc2cccc(O)c2)c1=O` (stereo not shown) [Compound 8], the EC50 under setting [1] is 0.001 to 0.1 µM.

Turning to `Cn1c(=O)c2c(nc(S(=O)(=O)Cc3cccc(Cl)c3)n2C)n(C)c1=O` [Compound 30, 8-(3-chlorobenzylsulfonyl)-1,3,7-trimethyl-1H-purine-2,6(3H,7H)-dione], the EC50 under setting [3] was in the range of 1 to 1000 µM.

For the compound `CCCSc1nc2c(c(=O)n(C)c(=O)n2C)n1CC` [Compound 78, 7-ethyl-1,3-dimethyl-8-(propylthio)-1H-purine-2,6(3H,7H)-dione], the EC50 under setting [3] was in the range of 1 to 1000 µM. On the same count and under the same terms, in the case of `Cn1c(=O)c2c(nc(S(=O)(=O)Cc3ccc(C4(C(F)(F)F)N=N4)cc3)n2C)n(C)c1=O` [Compound 41, 1,3,7-trimethyl-8-(4-(3-(trifluoromethyl)-3H-diazirin-3-yl)benzylsulfonyl)-1H-purine-2,6(3H,7H)-dione] it was 1 to 1000 µM. On the same count and under the same terms, in the case of `CCn1c(SCC2CC2)nc2c1c(=O)n(C)c(=O)n2C` [Compound 81, 8-(cyclopropylmethylthio)-7-ethyl-1,3-dimethyl-1H-purine-2,6(3H,7H)-dione] it was 1 to 1000 µM. For `Cn1c(=O)c2c(nc(S(=O)(=O)CC3CC3)n2C)n(CC#Cc2cc(NC(=O)CN3CCOCC3)cc(NC(=O)CN3CCOCC3)c2)c1=O` [Compound 28], under setting [1], the EC50 was 0.001 to 0.1 µM. As for `CSc1nc2c(c(=O)n(C)c(=O)n2C)n1C` [Compound 2, 1,3,7-trimethyl-8-(methylthio)-1H-purine-2,6(3H,7H)-dione], under setting [3], the EC50 fell in the range of 1 to 1000 µM. Consider `CCCNS(=O)(=O)c1nc2c(c(=O)n(C)c(=O)n2C)n1C` [Compound 58], for which the EC50 under setting [1] lay within 10 to 100 µM.

`CCSc1nc2c(c(=O)n(C)c(=O)n2C)n1C` [Compound 5, 8-(ethylthio)-1,3,7-trimethyl-1H-purine-2,6(3H,7H)-dione]: the EC50 under setting [3] was 1 to 1000 µM. The same measure, in the same setting: the same measure for `Cn1c(=O)c2nc(S(C)(=O)=O)n(C)c2n(C)c1=O` [Compound 146, 1,3,9-trimethyl-8-(methylsulfonyl)-3,9-dihydro-1H-purine-2,6-dione]: 1 to 1000 µM; for `CCOc1ccc(OC)c(CS(=O)(=O)c2nc3c(c(=O)n(C)c(=O)n3C)n2C)c1` [Compound 67, 8-(5-ethoxy-2-methoxybenzylsulfonyl)-1,3,7-trimethyl-1H-purine-2,6(3H,7H)-dione]: 1 to 1000 µM. For `Cn1c(=O)c2c(nc(S(C)(=O)=O)n2C)n(CC#N)c1=O` [Compound 107, 2-(1,7-dimethyl-8-(methylsulfonyl)-2,6-dioxo-1H-purin-3(2H,6H,7H)-yl)acetonitrile], under setting [4], the EC50 was 1 to 100 µM.

Consider `Cn1c(=O)c2c(nc(S(=O)(=O)CC3CC3)n2C)n(CC#Cc2cccc(N)c2)c1=O` [Compound 124, 3-(3-(3-aminophenyl)prop-2-yn-1-yl)-8-((cyclopropylmethyl)sulfonyl)-1,7-dimethyl-3,7-dihydro-1H-purine-2,6-dione], for which the EC50 under setting [2] was in the range of 0.001 to 1 µM. In the case of `CCCOc1ccc(OC)cc1CS(=O)(=O)c1nc2c(c(=O)n(C)c(=O)n2C)n1C` [Compound 66, 8-(5-methoxy-2-propoxybenzylsulfonyl)-1,3,7-trimethyl-1H-purine-2,6(3H,7H)-dione], the EC50 under setting [3] is 1 to 1000 µM. For the compound `CNC/C=C/c1ccc(Cn2c(=O)n(C)c(=O)c3c2nc(S(=O)(=O)CC2CC2)n3C)s1` [Compound 173], the EC50 under setting [5] is 1 to 1000 µM. On to `CCNc1cc(C#CCn2c(=O)n(C)c(=O)c3c2nc(S(=O)(=O)CC2CC2)n3C)ccn1` [Compound 33], for which the EC50 under setting [1] was 0.001 to 0.1 µM. In the case of `CCCn1c(=O)c2c(nc(S(C)(=O)=O)n2C)n(C)c1=O` [Compound 90, 3,7-dimethyl-8-(methylsulfonyl)-1-propyl-1H-purine-2,6(3H,7H)-dione], the EC50 under setting [3] lay in the range of 1 to 1000 µM. Take `COCCn1c(S(C)(=O)=O)nc2c1c(=O)n(C)c(=O)n2C` [Compound 6]: the EC50 under setting [1] lay within 10 to 100 µM. Still for that read-out and setting: in the case of `Cn1c(=O)c2c(nc(S(=O)(=O)CC3CC3)n2C)n(CC#Cc2cc(NC(=O)CN3CCOCC3)ccc2Cl)c1=O` [Compound 22] it was 0.001 to 0.1 µM. As to `Cn1c(=O)c2c(nc(S(=O)(=O)Cc3ccc[n+]([O-])c3)n2C)n(C)c1=O` [Compound 51, 3-((1,3,7-trimethyl-2,6-dioxo-2,3,6,7-tetrahydro-1H-purin-8-ylsulfonyl)methyl)pyridine 1-oxide], under setting [3], the EC50 is 1 to 1000 µM. Turning to `CC(C)S(=O)(=O)c1nc2c(c(=O)n(C)c(=O)n2C)n1C` [Compound 18], the EC50 under setting [4] was in the range of 1 to 100 µM.

`CCn1c([S+]([O-])CC)nc2c1c(=O)n(C)c(=O)n2C` (stereo not shown) [Compound 76, 7-ethyl-8-(ethylsulfinyl)-1,3-dimethyl-1H-purine-2,6(3H,7H)-dione]: the EC50 under setting [3] was in the range of 1 to 1000 µM. On to `Cn1c(=O)c2c(nc(S(C)(=O)=O)n2C)n(CC#Cc2cccc(NCCN3CCCCC3)c2)c1=O` [Compound 18], for which the EC50 under setting [1] was 0.1 to 10 µM. Take `Cn1c(=O)c2c(nc(S(=O)(=O)Cc3ccccc3Cl)n2C)n(C)c1=O` [Compound 29, 8-(2-chlorobenzylsulfonyl)-1,3,7-trimethyl-1H-purine-2,6(3H,7H)-dione]: the EC50 under setting [3] lay within 1 to 1000 µM.

As to `Cn1c(=O)c2c(nc(S(C)(=O)=O)n2C)n(CC#Cc2cc(NC(=O)CN3CCOCC3)cc(NC(=O)CN3CCOCC3)c2)c1=O` [Compound 26], under setting [1], the EC50 lay in the range of 0.001 to 0.1 µM. As to `Cn1c(=O)c2c(nc(S(=O)(=O)CC3CC3)n2C)n(CC#Cc2ccnc(NC(=O)C3CC3)c2)c1=O` [Compound 31], under setting [1], the EC50 lay within 0.001 to 0.1 µM. With `Cn1c(=O)c2c(nc(S(=O)(=O)Cc3cccc4ccccc34)n2C)n(C)c1=O` [Compound 24, 1,3,7-trimethyl-8-(naphthalen-1-ylmethylsulfonyl)-1H-purine-2,6(3H,7H)-dione], the EC50 under setting [3] lay in the range of 1 to 1000 µM. With `Cn1c(=O)c2c(nc(S(=O)(=O)Cc3ccccc3)n2C)n(C)c1=O` [Compound 21, 8-(benzylsulfonyl)-1,3,7-trimethyl-1H-purine-2,6(3H,7H)-dione], the EC50 under setting [4] was 1 to 100 µM.

In the case of `Cn1c(=O)c2c(nc(S(=O)(=O)CC3CC3)n2C)n(Cc2cn(/C=C/CN)nn2)c1=O` [Compound 172], the EC50 under setting [5] was 1 to 1000 µM.

`Cn1c(=O)c2c(nc(S(=O)(=O)Cc3ccc4ccccc4c3)n2C)n(C)c1=O` [Compound 23, 1,3,7-trimethyl-8-(naphthalen-2-ylmethylsulfonyl)-1H-purine-2,6(3H,7H)-dione]: the EC50 under setting [3] fell in the range of 1 to 1000 µM. With `Cn1c(=O)c2c(nc(S(=O)(=O)CCOCCO)n2C)n(CC#Cc2cccc(O)c2)c1=O` [Compound 153], under setting [5], the EC50 is 1 to 1000 µM.
